For experiment [1], the system named is H460 NSCLC cells. The experiment is described as follows: Hoechst 33342/PI nuclear co-staining apoptosis and accidental necrosis assay, H460. In kind it is cell-based, human. The following applies: cisplatin-sensitive H460, 7 h, 0–20 µM. The protocol:
(§1) The anti-proliferative activity of compounds 1 and 3b against H292 and H460 cells were assessed across a range of concentrations (0–20 µM) under treatment at 10 and 24 h. […] The cytotoxic effect of 3b was closely resembled that of the parental compound 1 after 24 h treatment. According to their cytotoxic profiles at short treatment duration, the NSCLC cell lines were treated with various concentrations (0, 0.1, 1, 5, 10, and 20 µM) of compounds 1 and 3b, followed by Hoechst 33342 and PI staining to visualize morphological changes by fluorescence microscopy (Fig. 4C–F). The bright blue fluorescence of Hoechst 33342 indicated apoptosis, characterized by DNA condensation and fragmentation. In contrast, the red fluorescence emitted by propidium iodide (PI) indicated necrotic cell death. The percentage of apoptotic and necrotic cells was calculated based on the stained image.
(§2) NSCLC cells (H292 and H460) were seeded into a 96-well plate at a density of 1 × 10^4 cells/well for 24 h. Subsequently, the cells were treated with several concentrations of compounds 1 and 3b (0–20 µM) for 7 h. […] Visualization and imaging of the stained cells were carried out using a fluorescence microscope (Nikon ECLIPSE Ts2, Tokyo, Japan). […] The percentage of cell death was analyzed and reported.

Experiment [2] deals with dermal papilla (DP) cell line. The experiment is described as follows: MTT cell viability on normal cell line DP. In kind it is cell-based. The following applies: 72 h. The protocol: (§3) DP and BEAS-2B were seeded into 96-well plates at densities of 1 × 10^4 cells per well, while HaCaT cells were seeded at densities of 5 × 10^3 cells per well. The cells were allowed to adhere for 24 h. Subsequently, the cells were treated with various concentrations of compounds 3a–3o, 4a, and 4b at 72 h for DP cells and at 24 h for HaCaT and BEAS-2B cells. After the treatment period, cells were incubated with 0.5 mg/ml of MTT for 2 h. The resulting MTT product was measured at 570 nm using a spectrophotometric microplate reader. Cell viability was calculated by comparing the optical density (OD) measurements to those of the untreated control, and the results were expressed as a percentage.

Experiment [3] relates to H460 NSCLC cells. Nature of the experiment: Annexin V-FITC/PI double staining flow cytometry, H460. The format is cell-based, human. The following applies: H460, 7 h; statement for 1 at 20 µM. As to the method:
(§4) Apoptosis cell death was investigated following the manufacturer's protocol (ImmunoTools, Friesoythe, Germany) using FITC–labeled Annexin V/PI. Treated cells was cultured overnight in 24-well plates at a density of 5 × 10^4 cells/well. Subsequently, cells were treated with various concentrations of 1, and 3b (0, 0.1, 1, 5, 10, and 20 µM) for 7 h. After treatment, cells were collected, washed with cold PBS, and then suspended in binding buffer. Each cell suspension was stained with 2.5 µL of annexin V-FITC and 1 µL of PI. The mixture was vortexed, then incubated for 15 min at room temperature. Guava easyCyte flow cytometer (EMD Millipore, Hayward, CA, USA) was utilized to detect live, apoptotic, and necrotic cells. The modes of cell death were classified as necrotic (PI+), and apoptotic cell death, divided into early apoptotic (PI (-) Annexin-V (+)) and late apoptotic (PI (+) Annexin-V (+)).

Experiment [4] has as its system human keratinocyte (HaCaT) cell line. Nature of the experiment: MTT cell viability on normal cell line HaCaT. In kind it is cell-based. The following applies: Homo sapiens, 24 h, read-out: IC50 ± S.D. HaCaT. As to the method: as §3
For experiment [5], the system named is H460 non-small-cell lung cancer cell line. Nature of the experiment: cells. In kind it is cell-based. The following applies: Homo sapiens, NCI-H460, H460, MTT. The protocol: (§5) The in vitro cytotoxicity of all the semisynthesized esters and their precursors against H292 and H460 human NSCLC cell lines was analyzed based on the mitochondrial dehydrogenase activity via the MTT assay[43] (Table 1). The compounds were tested at doses of 1–250 nM. Cisplatin and doxorubicin, which are the standard chemotherapeutic drugs for the treatment of NSCLC, were used as positive controls. […] However, the extended use of 1 is limited by the concerns for unwanted necrosis, which is an unprogrammed form of cell death caused by the presence of two quinone moieties. […] The IC50 values of the 5-O-ester derivatives 3a, 3b, 3d, 3h, 3i, and 3k were in the same range as the mother compound 1.
(§6) The in vitro cytotoxicity of compounds 3a–3o, 4a, and 4b was determined against the H292 and H460 NSCLC cell lines by the MTT colorimetric assay. Each compound was dissolved in DMSO to prepare a 10 mM stock solution. Both the H292 and H460 cells were cultured in RPMI 1640 medium supplemented with 2 mM L-glutamine, 10% FBS, and 100 units/mL of penicillin–streptomycin at 37 °C under 5% CO2. The NSCLC cells were trypsinized and seeded with a density of 5 × 10^3 cells/well in a 96-well plate, followed by overnight incubation. Serial dilutions of the test compounds ranging from 1 to 250 nM were prepared in the presence of DMSO (< 0.2% v/v). […] After incubation, formazan crystals were solubilized by adding 100 µL of DMSO, and their absorbance was measured at 570 nm by a spectrophotometric microtiter plate reader (PerkinElmer Victor 3 1420 Multilabel Plate Counter). Cell viability was calculated as the percentage of nontreated control cells. The mean IC50 values were obtained from three independent experiments. Each experiment was conducted in triplicate with at least five concentrations of the tested compounds. The GraphPad Prism software (version 5) was used to calculate the average IC50 and standard deviation (S.D.) values for each experiment. Cisplatin and doxorubicin were used as the positive controls, while 0.2% DMSO served as the negative control.

For experiment [6], the system named is H292 non-small-cell lung cancer cell line. Nature of the experiment: cells. The format is cell-based. The following applies: Homo sapiens, NCI-H292, H292, MTT. The protocol:
as §5, §6

Experiment [7] concerns H292 NSCLC cells. The experiment is described as follows: Hoechst 33342/PI nuclear co-staining apoptosis and accidental necrosis assay, H292. The format is cell-based, human. The following applies: cisplatin-resistant H292, 7 h, 0–20 µM; statement for 1 at the highest concentration (20 µM). As to the method: as §1, §2
In experiment [8] the test system is H292 NSCLC cells. The experiment is described as follows: Annexin V-FITC/PI double staining flow cytometry, H292. In kind it is cell-based, human. The following applies: H292, 7 h; statement for 1 at 20 µM. As to the method:
as §4
In general terms: Flow cytometry measures light scatter and fluorescence of single cells or particles in a stream.

Experiment [9] concerns non-tumorigenic bronchial epithelial (BEAS-2B) cell line. Nature of the experiment: MTT cell viability on normal cell line BEAS-2B. The format is cell-based. The following applies: Homo sapiens, BEAS-2B normal cell line, 24 h, read-out: IC50 ± S.D. BEAS-2B. The protocol: as §3
Where [10] appears, read: 10 h, 0–20 µM, read-out: IC50 ± S.D. H460 10 h.
Setting [11] is: 24 h, 0–20 µM, read-out: IC50 ± S.D. H460 24 h.
The mark [12] stands for this setting: 72 h, read-out: IC50 ± S.D. H460.
The mark [13] stands for this setting: 10 h, 0–20 µM, read-out: IC50 ± S.D. H292 10 h.
[14] abbreviates: 24 h, 0–20 µM, read-out: IC50 ± S.D. H292 24 h.
[15] abbreviates: 72 h, read-out: IC50 ± S.D. H292.

Read-outs that look alike come from different tables or passages of the source.

As to `C/C=C(/C)C(=O)OC[C@H]1C2=C(C[C@H]3[C@H]4C5=C(C[C@@H]([C@H](C#N)N13)N4C)C(=O)C(C)=C(OC)C5=O)C(=O)C(C)=C(OC)C2=O` [Compound 1, Renieramycin M], the “Mode of cell death (apoptosis / accidental necrosis) by Hoechst 33342/PI staining” value with H460 NSCLC cells [1] was “unwanted necrosis was observed in a dosed-dependent manner”; in the experiment on H292 NSCLC cells [7] it was “induced both apoptosis and accidental necrosis”. Besides, the IC50 in experiment [2] came out at 7.07 ± 1.5 nM; in experiment [4] it was 8.01 ± 0.53 nM; in [5] (setting [10]), 12000 ± 2730 nM; in experiment [5] (setting [11]), 4130 ± 1000 nM; in experiment [5] (setting [12]), 35.6 ± 1.82 nM; in experiment [6] (setting [13]), 4920 ± 3140 nM. The IC50 in experiment [6] (setting [14]) is 3240 ± 800 nM; in experiment [6] (setting [15]) it was 34.4 ± 1.7 nM; in experiment [9], 75 ± 9.77 nM. Further, the “Mode of cell death by annexin V-FITC/PI flow cytometric analysis” value was “necrotic cell death in both H292 and H460 cell lines in conjugation with late apoptosis” in the experiment with H460 NSCLC cells [3]; “necrotic cell death in both H292 and H460 cell lines in conjugation with late apoptosis” in the experiment on H292 NSCLC cells [8].
With `C/C=C(/C)C(=O)OC[C@H]1c2c(c(OC(=O)CC)c(C)c3c2OCO3)C[C@H]2[C@H]3C4=C(C[C@@H]([C@H](C#N)N12)N3C)C(=O)C(C)=C(OC)C4=O` [Compound 3b, 5-O-(3-propanoyl) ester of renieramycin T], the results for the “Mode of cell death (apoptosis / accidental necrosis) by Hoechst 33342/PI staining” value with H460 NSCLC cells [1] and in the experiment on H292 NSCLC cells [7] were “induced apoptosis with minimal necrosis” and “morphological apoptosis with no detectable necrotic cells”, respectively. For the same compound, the IC50 worked out at 23.6 ± 0.65 nM in experiment [2]; 33.7 ± 9.43 nM in experiment [4]; 18800 ± 400 nM in experiment [5] (setting [10]); 7320 ± 520 nM in experiment [5] (setting [11]); 33.9 ± 1.95 nM in [5] (setting [12]); 17600 ± 6580 nM in experiment [6] (setting [13]). Besides, the half-maximal inhibitory concentration (IC50) in experiment [6] (setting [14]) turned out to be 4140 ± 840 nM; in [6] (setting [15]), 33.4 ± 0.87 nM; in [9], 90.2 ± 9.49 nM. The “Mode of cell death by annexin V-FITC/PI flow cytometric analysis” value in the experiment on H460 NSCLC cells [3] and in the experiment on H292 NSCLC cells [8] was “early apoptosis with minimal necrosis” each time.
With `COc1cccc2c1C(=O)c1c(O)c3c(c(O)c1C2=O)C[C@@](O)(C(=O)CO)C[C@@H]3O[C@H]1C[C@H](N)[C@H](O)[C@H](C)O1` [Doxorubicin, reference compound], the IC50 in [2] amounted to 58 ± 24.4 nM; in experiment [4], 915 ± 50.2 nM; in [5] (setting [12]) it was 43.9 ± 6.26 nM; in experiment [6] (setting [15]), 40.8 ± 6.89 nM; in experiment [9] it was 663 nM.

As a reminder, the IC50 is the concentration at which inhibition is half-maximal.

The values above are taken from article PMC10700347, “Semisynthesis of 5-O-ester derivatives of renieramycin T and their cytotoxicity against non-small-cell lung cancer cell lines” (Scientific Reports, 2023).
